# Source: patent US8802597B2, “Herbicidal pyrimidines” (E I du Pont de Nemours and Company, priority 2003, dated 2014)
# Where two headings read alike, the source gives them in different places.
# How the values were obtained:
# Format in all cases: in vivo
# [1] = test system: barnyardgrass (Echinochloa crus-galli); experiment: Test B flooded paddy test; details: Echinochloa crus-galli, Flood, 1000 g ai/ha; scale 0 (no effect) to 100 (complete control); read-out: Plant response rating, Barnyardgrass
# In short: (§1)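 Visual injury scoring (0 = no effect, 100 = complete control) versus controls made 13 to 15 days after treatment in the greenhouse. Test species were grown in flooded paddy to the 2-leaf stage: rice, barnyardgrass, umbrella sedge, duck salad.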
# [2] = test system: umbrella sedge (Cyperus difformis); experiment: Test B flooded paddy test; details: Cyperus difformis, Flood, 1000 g ai/ha; scale 0 to 100; read-out: Plant response rating, Sedge, Umbrella
# In short: as §1
# [3] = test system: duck salad (Heteranthera limosa); experiment: Test B flooded paddy test; details: Heteranthera limosa, Flood, 1000 g ai/ha; scale 0 to 100; read-out: Plant response rating, Ducksalad
# In short: as §1
# rice (Oryza sativa) = experiment: Test B flooded paddy test; details: Oryza sativa, Flood, 1000 g ai/ha; scale 0 to 100; read-out: Plant response rating, Rice
# In short: as §1
# [4] = test system: giant foxtail (Setaria faberii); experiment: Test B pre/postemergence; details: Setaria faberi; for pest or weed control at 125 g/ha: 125 g ai/ha; for pest or weed control at 500 g/ha: 500 g ai/ha
# In short: (§2)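 Following sowing, compounds in a surfactant-bearing non-phytotoxic solvent were applied preemergence; emerged plants 2 to 18 cm high got postemergence treatment concurrently. Evaluation: 13 to 15 days later, greenhouse, 0–100 visual scale.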
# corn (Zea mays) = experiment: Test B pre/postemergence; details: Zea mays
# In short: as §2
# [5] = test system: barnyardgrass (Echinochloa crus-galli); experiment: Test B pre/postemergence; details: Echinochloa crus-galli; for pest or weed control at 125 g/ha: 125 g ai/ha; for pest or weed control at 500 g/ha: 500 g ai/ha
# In short: as §2
# [6] = test system: lambsquarters (Chenopodium album); experiment: Test B pre/postemergence; details: Chenopodium album; for pest or weed control at 125 g/ha: 125 g ai/ha; for pest or weed control at 500 g/ha: 500 g ai/ha
# In short: as §2
# [7] = test system: morningglory (Ipomoea coccinea); experiment: Test B pre/postemergence; details: Ipomoea; for pest or weed control at 125 g/ha: 125 g ai/ha; for pest or weed control at 500 g/ha: 500 g ai/ha
# In short: as §2
# [8] = test system: wheat (Triticum aestivum); experiment: Test B pre/postemergence; details: Triticum aestivum; for plant injury at 125 g/ha: 125 g ai/ha; for plant injury at 500 g/ha: 500 g ai/ha
# In short: as §2
# [9] = test system: velvetleaf (Abutilon theophrasti); experiment: Test B pre/postemergence; details: Abutilon theophrasti; for pest or weed control at 125 g/ha: 125 g ai/ha; for pest or weed control at 500 g/ha: 500 g ai/ha
# In short: as §2
# [10] = test system: crabgrass (Digitaria sanguinalis); experiment: Test B pre/postemergence; details: Digitaria sanguinalis; for pest or weed control at 125 g/ha: 125 g ai/ha; for pest or weed control at 500 g/ha: 500 g ai/ha
# In short: as §2
# [11] = test system: Surinam grass (Brachiaria decumbens); experiment: Test B pre/postemergence; details: Urochloa decumbens; for pest or weed control at 125 g/ha: 125 g ai/ha; for pest or weed control at 500 g/ha: 500 g ai/ha
# In short: as §2
# [12] = test system: cocklebur (Xanthium strumarium); experiment: Test B pre/postemergence; details: Xanthium strumarium; for pest or weed control at 125 g/ha: 125 g ai/ha; for pest or weed control at 500 g/ha: 500 g ai/ha
# In short: as §2
# [13] = test system: pigweed (Amaranthus retroflexus); experiment: Test B pre/postemergence; details: Amaranthus retroflexus; for pest or weed control at 125 g/ha: 125 g ai/ha; for pest or weed control at 500 g/ha: 500 g ai/ha
# In short: as §2
# [14] = test system: blackgrass (Alopecurus myosuroides); experiment: Test B postemergence; details: Alopecurus myosuroides, post-emergence
# In short: as §2
# wild oat (Avena fatua) = experiment: Test B postemergence; details: Avena fatua, post-emergence
# In short: as §2
compound,measurement,setting,value
CCOC(=O)c1nc(C2CC2)nc(N)c1F [Compound 30],pest or weed control at 1000 g/ha,[1],0%
same,pest or weed control at 1000 g/ha,[2],0%
same,pest or weed control at 1000 g/ha,[3],0%
same,plant injury at 1000 g/ha,rice (Oryza sativa),0%
same,pest or weed control at 125 g/ha,"[4]; post-emergence, Postemergence, scale 0 to 100 (0 no effect, 100 complete control), read-out: Foxtail, Giant plant response rating",0%
same,pest or weed control at 500 g/ha,"[4]; post-emergence, Postemergence, scale 0 to 100, read-out: Plant response rating, Foxtail, Giant",90%
same,pest or weed control at 125 g/ha,"[4]; pre-emergence, Preemergence, scale 0 to 100 (0 no effect, 100 complete control), read-out: Plant response rating, Foxtail, Giant",10%
same,pest or weed control at 500 g/ha,"[4]; pre-emergence, Preemergence, scale 0 to 100 (0 no effect, 100 complete control), read-out: Foxtail, Giant plant response rating",80%
same,plant injury at 125 g/ha,"corn (Zea mays); post-emergence, Postemergence, 125 g ai/ha, scale 0 to 100 (0 no effect, 100 complete control), read-out: Corn plant response rating",0%
same,"Corn plant response rating (crop injury, 0 = no effect, 100 = complete kill) at 500 g/ha","corn (Zea mays); post-emergence, Postemergence, 500 g ai/ha, scale 0 to 100",30%
same,"Corn plant response rating (crop injury, 0 = no effect, 100 = complete kill) at 125 g/ha","corn (Zea mays); pre-emergence, Preemergence, 125 g ai/ha, scale 0 to 100 (0 no effect, 100 complete control)",10%
same,plant injury at 500 g/ha,"corn (Zea mays); pre-emergence, Preemergence, 500 g ai/ha, scale 0 to 100 (0 no effect, 100 complete control), read-out: Corn plant response rating",80%
same,pest or weed control at 125 g/ha,"[5]; post-emergence, Postemergence, scale 0 to 100 (0 no effect, 100 complete control), read-out: Barnyardgrass plant response rating",0%
same,pest or weed control at 500 g/ha,"[5]; post-emergence, Postemergence, scale 0 to 100, read-out: Plant response rating, Barnyardgrass",80%
same,pest or weed control at 125 g/ha,"[5]; pre-emergence, Preemergence, scale 0 to 100 (0 no effect, 100 complete control), read-out: Plant response rating, Barnyardgrass",10%
same,pest or weed control at 500 g/ha,"[5]; pre-emergence, Preemergence, scale 0 to 100 (0 no effect, 100 complete control), read-out: Barnyardgrass plant response rating",40%
same,pest or weed control at 125 g/ha,"[6]; post-emergence, Postemergence, scale 0 to 100 (0 no effect, 100 complete control), read-out: Lambsquarters plant response rating",90%
same,pest or weed control at 500 g/ha,"[6]; post-emergence, Postemergence, scale 0 to 100, read-out: Plant response rating, Lambsquarters",100%
same,pest or weed control at 125 g/ha,"[6]; pre-emergence, Preemergence, scale 0 to 100 (0 no effect, 100 complete control), read-out: Plant response rating, Lambsquarters",80%
same,pest or weed control at 500 g/ha,"[6]; pre-emergence, Preemergence, scale 0 to 100 (0 no effect, 100 complete control), read-out: Lambsquarters plant response rating",90%
same,pest or weed control at 125 g/ha,"[7]; post-emergence, Postemergence, scale 0 to 100 (0 no effect, 100 complete control), read-out: Morningglory plant response rating",90%
same,pest or weed control at 500 g/ha,"[7]; post-emergence, Postemergence, scale 0 to 100, read-out: Plant response rating, Morningglory",100%
same,pest or weed control at 125 g/ha,"[7]; pre-emergence, Preemergence, scale 0 to 100 (0 no effect, 100 complete control), read-out: Plant response rating, Morningglory",90%
same,pest or weed control at 500 g/ha,"[7]; pre-emergence, Preemergence, scale 0 to 100 (0 no effect, 100 complete control), read-out: Morningglory plant response rating",100%
same,plant injury at 125 g/ha,"[8]; post-emergence, Postemergence, scale 0 to 100 (0 no effect, 100 complete control), read-out: Wheat plant response rating",50%
same,plant injury at 500 g/ha,"[8]; post-emergence, Postemergence, scale 0 to 100, read-out: Plant response rating, Wheat",60%
same,plant injury at 125 g/ha,"[8]; pre-emergence, Preemergence, scale 0 to 100 (0 no effect, 100 complete control), read-out: Plant response rating, Wheat",30%
same,plant injury at 500 g/ha,"[8]; pre-emergence, Preemergence, scale 0 to 100 (0 no effect, 100 complete control), read-out: Wheat plant response rating",60%
same,pest or weed control at 125 g/ha,"[9]; post-emergence, Postemergence, scale 0 to 100 (0 no effect, 100 complete control), read-out: Velvetleaf plant response rating",50%
same,pest or weed control at 500 g/ha,"[9]; post-emergence, Postemergence, scale 0 to 100, read-out: Plant response rating, Velvetleaf",90%
same,pest or weed control at 125 g/ha,"[9]; pre-emergence, Preemergence, scale 0 to 100 (0 no effect, 100 complete control), read-out: Plant response rating, Velvetleaf",10%
same,pest or weed control at 500 g/ha,"[9]; pre-emergence, Preemergence, scale 0 to 100 (0 no effect, 100 complete control), read-out: Velvetleaf plant response rating",80%
same,pest or weed control at 125 g/ha,"[10]; post-emergence, Postemergence, scale 0 to 100 (0 no effect, 100 complete control), read-out: Crabgrass plant response rating",30%
same,pest or weed control at 500 g/ha,"[10]; post-emergence, Postemergence, scale 0 to 100, read-out: Plant response rating, Crabgrass",90%
same,pest or weed control at 125 g/ha,"[10]; pre-emergence, Preemergence, scale 0 to 100 (0 no effect, 100 complete control), read-out: Plant response rating, Crabgrass",50%
same,pest or weed control at 500 g/ha,"[10]; pre-emergence, Preemergence, scale 0 to 100 (0 no effect, 100 complete control), read-out: Crabgrass plant response rating",90%
same,pest or weed control at 125 g/ha,"[11]; post-emergence, Postemergence, scale 0 to 100 (0 no effect, 100 complete control), read-out: Surinam Grass plant response rating",10%
same,pest or weed control at 500 g/ha,"[11]; post-emergence, Postemergence, scale 0 to 100, read-out: Plant response rating, Surinam Grass",80%
same,pest or weed control at 125 g/ha,"[11]; pre-emergence, Preemergence, scale 0 to 100 (0 no effect, 100 complete control), read-out: Plant response rating, Surinam Grass",0%
same,pest or weed control at 500 g/ha,"[11]; pre-emergence, Preemergence, scale 0 to 100 (0 no effect, 100 complete control), read-out: Surinam Grass plant response rating",80%
same,pest or weed control at 125 g/ha,"[12]; post-emergence, Postemergence, scale 0 to 100 (0 no effect, 100 complete control), read-out: Cocklebur plant response rating",100%
same,pest or weed control at 500 g/ha,"[12]; post-emergence, Postemergence, scale 0 to 100, read-out: Plant response rating, Cocklebur",100%
same,pest or weed control at 125 g/ha,"[12]; pre-emergence, Preemergence, scale 0 to 100 (0 no effect, 100 complete control), read-out: Plant response rating, Cocklebur",60%
same,pest or weed control at 500 g/ha,"[12]; pre-emergence, Preemergence, scale 0 to 100 (0 no effect, 100 complete control), read-out: Cocklebur plant response rating",100%
same,pest or weed control at 125 g/ha,"[13]; post-emergence, Postemergence, scale 0 to 100 (0 no effect, 100 complete control), read-out: Pigweed plant response rating",90%
same,pest or weed control at 500 g/ha,"[13]; post-emergence, Postemergence, scale 0 to 100, read-out: Plant response rating, Pigweed",100%
same,pest or weed control at 125 g/ha,"[13]; pre-emergence, Preemergence, scale 0 to 100 (0 no effect, 100 complete control), read-out: Plant response rating, Pigweed",50%
same,pest or weed control at 500 g/ha,"[13]; pre-emergence, Preemergence, scale 0 to 100 (0 no effect, 100 complete control), read-out: Pigweed plant response rating",90%
same,pest or weed control at 125 g/ha,"[14]; 125 g ai/ha, scale 0 to 100 (0 no effect, 100 complete control), read-out: Blackgrass plant response rating",60%
same,pest or weed control at 500 g/ha,"[14]; 500 g ai/ha, scale 0 to 100, read-out: Plant response rating, Blackgrass",70%
same,pest or weed control at 125 g/ha,"wild oat (Avena fatua); 125 g ai/ha, scale 0 to 100 (0 no effect, 100 complete control), read-out: Oat, Wild plant response rating",60%
same,pest or weed control at 500 g/ha,"wild oat (Avena fatua); 500 g ai/ha, scale 0 to 100, read-out: Plant response rating, Oat, Wild",70%
